The values below come from patent publication US12503485B2, “Human aminosterol ENT-03 compounds, related compositions comprising the same, and methods of using the same” (Enterin, Inc., priority 2019, dated 2025).

Assay [1] relates to stomach mRNA. As to the kind of experiment: Stomach transcriptome (RNAseq) after oral ENT-01 in old mice. In kind it is in vivo. Conditions: old mice after treatment. On the procedure:
(§1) Male C57Bl/6 mice, aged 20 and 78 weeks, were obtained from Jackson labs. Animals were exposed to 12 hr light dark cycles and provided Teklad standard mouse diet and water ad lib.
(§2) Animals were dosed once daily by oral gavage in the morning for a total of 14 days. Animals were fasted 3-4 hours prior to dosing and at least 1 hour following dosing, with fasting not to exceed 6 hours. The test article was dissolved in 0.5% hydroxypropylcellulose in water. On day 15 the animals were euthanized by CO2 asphyxiation, necropsied, and tissues prepared for histology and RNAseq analysis.
The GI tracts of the animals were sectioned into stomach, duodenum, jejunum, ileum, caecum, colon, and rectum. The tissues were then sent for histology, and the transcriptomes analyzed by RNAseq.

The test system of assay [2] is stomach tissues gene expression. Briefly: Stomach RNA-sequencing, effect size evaluation of treatment contrasts. It counts as in vivo, mice. On the procedure: as §1, §2
Samples of stomach tissues from the mice were analysed by RNA-sequencing on an Illumina platform.
A four-fold change in expression between groups was used as a measure of pseudo-significance in the absence of replicate samples. At this threshold, differentially expressed genes were identified in all contrasts. […]

The target of assay [3] is T1, PTPN11/SHP2-FL (E76K) (Homo sapiens, UniProt Q06124, E76K).
T1 sequence (Q06124 2-597 isoform Q06124-1 E76K): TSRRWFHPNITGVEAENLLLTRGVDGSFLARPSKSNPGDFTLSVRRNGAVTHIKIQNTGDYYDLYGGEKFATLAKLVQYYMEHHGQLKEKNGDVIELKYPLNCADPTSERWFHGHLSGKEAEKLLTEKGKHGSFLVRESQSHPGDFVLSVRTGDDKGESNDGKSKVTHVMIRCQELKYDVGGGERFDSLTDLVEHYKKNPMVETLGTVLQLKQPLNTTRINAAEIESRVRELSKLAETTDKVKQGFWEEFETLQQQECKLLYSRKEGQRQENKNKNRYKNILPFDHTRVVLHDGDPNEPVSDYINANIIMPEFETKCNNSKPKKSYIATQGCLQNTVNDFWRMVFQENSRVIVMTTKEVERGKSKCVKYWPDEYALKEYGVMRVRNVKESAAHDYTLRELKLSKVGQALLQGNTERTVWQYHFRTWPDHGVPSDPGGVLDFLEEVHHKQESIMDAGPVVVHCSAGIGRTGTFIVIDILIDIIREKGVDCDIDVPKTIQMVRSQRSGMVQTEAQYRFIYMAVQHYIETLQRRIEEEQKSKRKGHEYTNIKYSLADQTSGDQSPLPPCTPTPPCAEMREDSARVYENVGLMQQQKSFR
Briefly: Phosphatase assay PTPN11/SHP2-FL (E76K).

Assay [4] has as its target T2, PTPN2/TC-PTP (Homo sapiens, UniProt P17706).
T2 construct: purchased Recation Biology Inc
T2 sequence (P17706 1-415): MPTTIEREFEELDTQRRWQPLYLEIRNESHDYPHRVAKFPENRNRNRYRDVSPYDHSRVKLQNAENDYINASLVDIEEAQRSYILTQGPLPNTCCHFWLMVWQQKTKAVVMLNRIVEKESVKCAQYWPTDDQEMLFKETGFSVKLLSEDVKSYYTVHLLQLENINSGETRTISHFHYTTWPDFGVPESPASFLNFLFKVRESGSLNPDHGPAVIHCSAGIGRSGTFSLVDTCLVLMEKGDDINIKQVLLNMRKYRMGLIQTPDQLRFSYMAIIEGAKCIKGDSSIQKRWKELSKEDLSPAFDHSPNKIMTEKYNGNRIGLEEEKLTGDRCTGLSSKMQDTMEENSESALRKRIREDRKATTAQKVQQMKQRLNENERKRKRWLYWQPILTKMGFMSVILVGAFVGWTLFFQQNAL
Briefly: Phosphatase assay PTPN2/TC-PTP. It counts as biochemical.

The target of assay [5] is T3, PP1A (Homo sapiens, UniProt P62136).
T3 construct: purchased Recation Biology Inc
As to the kind of experiment: Phosphatase assay PP1A (DiFMUP fluorescence). In kind it is biochemical.

Assay [6] has as its target T4, PTPN6/SHP1 (Homo sapiens, UniProt P29350).
T4 construct: purchased Recation Biology Inc
As to the kind of experiment: Phosphatase assay PTPN6/SHP1. It counts as biochemical.

For assay [7], the target named is T5, PP1B (Homo sapiens, UniProt P62140).
T5 construct: purchased Recation Biology Inc
Briefly: Phosphatase assay PP1B (DiFMUP fluorescence). In kind it is biochemical.

The target of assay [8] is T6, PP2A Alpha/PP2R1A Complex (Homo sapiens, UniProt P67775).
T6 construct: purchased Recation Biology Inc
Briefly: Phosphatase assay PP2A Alpha/PP2R1A Complex. In kind it is biochemical.

Assay [9] has as its target FXR (Homo sapiens, UniProt Q96RI1). Conditions: Ogundare et al., 2010; cited from earlier work.
For assay [10], the system named is RXR/NURR1. The following applies: Ogundare et al., 2010; cited from earlier work.
In assay [11] the test system is LXR. The following applies: Ogundare et al., 2010; cited from earlier work.
The nature of assay [12]: Body weight of mice after i.p. deuterated ENT-03. It counts as in vivo. The text has this:
The presence of the deuterium on the side chain likely slows the action of the 2-methylacyl-coenzyme A racemase on C-25, the subsequent action of the dehydrogenase that produces the 24,25-trans-unsaturated derivative by removing the deuterium atoms at C24 and C25, and the subsequent hydration and oxidation at the C24 bond catalyzed by the D-bifunctional protein. Instead, the metabolism of ENT-03D3 will begin with the oxidation at C24 by CYP46A1, yielding the following compound: […]

In assay [13] the target is PTPN11/SHP2 (Homo sapiens, UniProt Q06124). As to the kind of experiment: Phosphatase assay PTPN11/SHP2. In kind it is biochemical. Conditions: Table 2C; read-out: Compound IC50 (M) PTPN11/SHP2.
PTPN11/SHP2, sequence (Q06124 whole entry): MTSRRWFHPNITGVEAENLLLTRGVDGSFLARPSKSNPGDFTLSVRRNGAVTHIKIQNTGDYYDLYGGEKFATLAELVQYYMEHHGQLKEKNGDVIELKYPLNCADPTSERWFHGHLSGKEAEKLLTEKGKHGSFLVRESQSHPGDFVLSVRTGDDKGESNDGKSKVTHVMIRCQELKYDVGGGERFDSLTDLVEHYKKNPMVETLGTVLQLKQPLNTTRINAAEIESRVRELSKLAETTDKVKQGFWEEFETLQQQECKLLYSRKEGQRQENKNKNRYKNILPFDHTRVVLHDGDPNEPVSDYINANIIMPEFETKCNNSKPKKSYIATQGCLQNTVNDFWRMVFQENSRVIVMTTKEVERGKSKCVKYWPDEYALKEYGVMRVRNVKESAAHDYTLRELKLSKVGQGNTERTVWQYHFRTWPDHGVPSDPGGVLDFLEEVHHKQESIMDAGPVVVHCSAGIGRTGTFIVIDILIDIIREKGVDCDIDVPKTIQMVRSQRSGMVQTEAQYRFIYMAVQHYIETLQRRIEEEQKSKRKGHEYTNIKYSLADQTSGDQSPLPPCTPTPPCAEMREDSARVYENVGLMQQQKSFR

T4 sequence (P29350 whole entry): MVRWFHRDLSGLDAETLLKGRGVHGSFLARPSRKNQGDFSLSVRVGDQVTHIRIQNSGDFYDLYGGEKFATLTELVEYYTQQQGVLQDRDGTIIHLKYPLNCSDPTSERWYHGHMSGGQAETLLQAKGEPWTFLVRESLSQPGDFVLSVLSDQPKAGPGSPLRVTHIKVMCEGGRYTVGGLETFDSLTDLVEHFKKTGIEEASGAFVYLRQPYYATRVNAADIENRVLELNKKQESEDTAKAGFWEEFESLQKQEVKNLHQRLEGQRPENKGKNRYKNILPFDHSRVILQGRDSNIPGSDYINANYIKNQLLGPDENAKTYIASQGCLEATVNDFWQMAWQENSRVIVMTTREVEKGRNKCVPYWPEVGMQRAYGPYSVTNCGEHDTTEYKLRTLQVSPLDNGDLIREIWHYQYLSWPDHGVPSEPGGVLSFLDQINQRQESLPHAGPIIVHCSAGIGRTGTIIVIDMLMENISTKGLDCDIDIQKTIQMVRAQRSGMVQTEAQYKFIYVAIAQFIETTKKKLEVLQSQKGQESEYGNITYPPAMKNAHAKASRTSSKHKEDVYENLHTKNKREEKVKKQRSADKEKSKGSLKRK
T6 sequence (P67775 whole entry): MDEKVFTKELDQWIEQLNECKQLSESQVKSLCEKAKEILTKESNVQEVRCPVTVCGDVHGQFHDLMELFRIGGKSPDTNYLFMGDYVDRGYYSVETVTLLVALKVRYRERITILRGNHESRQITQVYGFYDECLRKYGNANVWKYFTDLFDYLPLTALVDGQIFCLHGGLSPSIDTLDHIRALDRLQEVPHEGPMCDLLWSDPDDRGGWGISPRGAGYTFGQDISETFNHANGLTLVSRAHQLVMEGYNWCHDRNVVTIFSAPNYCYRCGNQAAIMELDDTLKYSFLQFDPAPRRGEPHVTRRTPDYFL
T6 sequence (P30153 whole entry partner): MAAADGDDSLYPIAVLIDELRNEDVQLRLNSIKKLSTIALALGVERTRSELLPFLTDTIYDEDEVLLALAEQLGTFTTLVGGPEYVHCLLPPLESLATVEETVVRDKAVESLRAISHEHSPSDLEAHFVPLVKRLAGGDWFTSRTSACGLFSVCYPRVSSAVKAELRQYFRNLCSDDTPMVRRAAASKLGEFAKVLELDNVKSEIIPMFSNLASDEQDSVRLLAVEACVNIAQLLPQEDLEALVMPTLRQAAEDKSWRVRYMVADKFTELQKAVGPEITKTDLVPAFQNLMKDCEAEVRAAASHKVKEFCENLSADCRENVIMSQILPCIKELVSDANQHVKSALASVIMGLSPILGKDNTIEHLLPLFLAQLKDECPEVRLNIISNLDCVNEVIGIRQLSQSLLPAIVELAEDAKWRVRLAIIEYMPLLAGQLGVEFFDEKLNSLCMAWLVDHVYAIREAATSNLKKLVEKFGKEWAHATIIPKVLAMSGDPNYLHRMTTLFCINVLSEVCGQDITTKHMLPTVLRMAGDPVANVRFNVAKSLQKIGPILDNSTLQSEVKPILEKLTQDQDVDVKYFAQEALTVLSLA
T5 sequence (P62140 whole entry): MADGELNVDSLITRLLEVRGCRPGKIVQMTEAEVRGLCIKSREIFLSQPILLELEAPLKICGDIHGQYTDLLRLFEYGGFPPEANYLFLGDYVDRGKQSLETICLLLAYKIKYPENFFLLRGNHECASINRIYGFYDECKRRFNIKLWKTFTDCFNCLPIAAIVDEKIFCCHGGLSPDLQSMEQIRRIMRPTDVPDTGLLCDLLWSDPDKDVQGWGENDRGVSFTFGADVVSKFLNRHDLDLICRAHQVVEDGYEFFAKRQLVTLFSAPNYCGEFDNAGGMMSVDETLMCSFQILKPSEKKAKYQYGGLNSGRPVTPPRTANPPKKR
FXR, sequence (Q96RI1 whole entry, species assumed): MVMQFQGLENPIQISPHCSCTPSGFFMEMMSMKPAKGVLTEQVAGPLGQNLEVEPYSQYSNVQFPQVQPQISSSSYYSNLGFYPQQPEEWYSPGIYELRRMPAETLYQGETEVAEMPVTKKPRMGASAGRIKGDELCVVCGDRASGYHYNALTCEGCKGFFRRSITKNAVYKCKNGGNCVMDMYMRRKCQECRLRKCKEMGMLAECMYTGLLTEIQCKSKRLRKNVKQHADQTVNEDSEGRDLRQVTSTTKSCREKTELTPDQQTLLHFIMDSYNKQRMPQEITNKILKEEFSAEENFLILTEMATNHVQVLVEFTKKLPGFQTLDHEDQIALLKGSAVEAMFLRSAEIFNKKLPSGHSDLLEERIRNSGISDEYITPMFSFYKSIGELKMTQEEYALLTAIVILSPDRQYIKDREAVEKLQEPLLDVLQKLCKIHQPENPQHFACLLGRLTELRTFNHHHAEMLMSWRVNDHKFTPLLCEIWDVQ
T3 sequence (P62136 whole entry): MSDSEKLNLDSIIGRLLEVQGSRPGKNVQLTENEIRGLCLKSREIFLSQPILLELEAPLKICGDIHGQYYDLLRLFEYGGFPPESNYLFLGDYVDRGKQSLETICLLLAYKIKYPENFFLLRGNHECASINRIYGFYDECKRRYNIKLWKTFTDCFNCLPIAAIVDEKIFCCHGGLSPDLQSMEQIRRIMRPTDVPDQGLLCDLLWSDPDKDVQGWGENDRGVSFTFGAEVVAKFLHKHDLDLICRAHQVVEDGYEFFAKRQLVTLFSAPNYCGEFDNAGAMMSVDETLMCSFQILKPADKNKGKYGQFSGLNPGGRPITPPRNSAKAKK

`CC(C)[C@@H](CC[C@@H](C)[C@H]1CC[C@H]2[C@@H]3[C@H](O)C[C@H]4C[C@@H](NCCCNCCCCN)CC[C@]4(C)[C@H]3CC[C@]12C)OS(=O)(=O)O` (single isomer, unassigned) [ENT-01, squalamine phosphate]: the “mRNA levels for all of the genes in Table 5A, in words” value in assay [1] is on record as “significant increase”. Further, in [2] (Old vs young, both treated), the “number of significant features, Down-regulated, fold change threshold 1.3×” value amounted to 1606; the “number of significant features, Down-regulated, fold change threshold 2×” value was 267; the “number of significant features, Down-regulated, fold change threshold 4×” value stood at 69; the “number of significant features, Down-regulated, fold change threshold 8×” value is listed as 36. Besides, in [2] (Old vs young, both treated), the “number of significant features, Down-regulated, fold change threshold 16×” value is on record as 27; the “number of significant features, Down-regulated, fold change threshold Any” value came to 7534; the “number of significant features, Up-regulated, fold change threshold 1.3×” value is recorded as 1647; the “number of significant features, Up-regulated, fold change threshold 2×” value stood at 559. In addition, in [2] (Old vs young, both treated), the “number of significant features, Up-regulated, fold change threshold 4×” value came to 263; the “number of significant features, Up-regulated, fold change threshold 8×” value came to 178; the “number of significant features, Up-regulated, fold change threshold 16×” value stood at 135; the “number of significant features, Up-regulated, fold change threshold Any” value is recorded as 7479. In [2] (treatment vs control (old)), the “number of significant features, Down-regulated, fold change threshold 1.3×” value came to 2235; the “number of significant features, Down-regulated, fold change threshold 2×” value was found to be 431; the “number of significant features, Down-regulated, fold change threshold 4×” value amounted to 66; the “number of significant features, Down-regulated, fold change threshold 8×” value is listed as 25. In assay [2] (treatment vs control (old)), the “number of significant features, Down-regulated, fold change threshold 16×” value is 11; the “number of significant features, Down-regulated, fold change threshold Any” value is recorded as 7460; the “number of significant features, Up-regulated, fold change threshold 1.3×” value came out at 2430; the “number of significant features, Up-regulated, fold change threshold 2×” value was 766. Also, in assay [2] (treatment vs control (old)), the “number of significant features, Up-regulated, fold change threshold 4×” value is reported as 317; the “number of significant features, Up-regulated, fold change threshold 8×” value came to 168; the “number of significant features, Up-regulated, fold change threshold 16×” value was 116; the “number of significant features, Up-regulated, fold change threshold Any” value is 7553. Moreover, in assay [2] (treatment vs control (young)), the “number of significant features, Down-regulated, fold change threshold 1.3×” value came out at 2367; the “number of significant features, Down-regulated, fold change threshold 2×” value is 642; the “number of significant features, Down-regulated, fold change threshold 4×” value is 144; the “number of significant features, Down-regulated, fold change threshold 8×” value is given as 47. In [2] (treatment vs control (young)), the “number of significant features, Down-regulated, fold change threshold 16×” value stood at 12; the “number of significant features, Down-regulated, fold change threshold Any” value is on record as 7553; the “number of significant features, Up-regulated, fold change threshold 1.3×” value is 1430; the “number of significant features, Up-regulated, fold change threshold 2×” value turned out to be 232. Further, in assay [2] (treatment vs control (young)), the “number of significant features, Up-regulated, fold change threshold 4×” value turned out to be 58; the “number of significant features, Up-regulated, fold change threshold 8×” value came out at 38; the “number of significant features, Up-regulated, fold change threshold 16×” value was 28; the “number of significant features, Up-regulated, fold change threshold Any” value was 7460.
As to `CC(CCCC(C)C1CCC2C3C(O)CC4CC(NCCCNCCCCN)CCC4(C)C3CC(O)C12C)C(=O)O` (single isomer, unassigned) [ENT-05], in assay [3], the IC50 turned out to be 43 nM.
Take `CC(CCCC(C)C1CCC2C3C(O)CC4CC(NCCCNCCCCN)CCC4(C)C3CCC12C)C(=O)O` (single isomer, unassigned) [ENT-06]: the “activity at PTPN2, in words” value in assay [4] was “inactive”. Besides, the “activity at PP1A, in words” value in assay [5] was “inactive”. Moreover, the IC50 in assay [3] stood at 345 nM. The “activity at PTPN6/SHP1, in words” value in assay [6] was “inactive”. The “activity at PP1B, in words” value in assay [7] was “inactive”. Also, in assay [8], the “activity at PP2A alpha, in words” value is “inactive”.
Turning to `C[C@H](CCC[C@@H](C)[C@H]1CCC2C3C(CC[C@@]21C)[C@@]1(C)CCC(=O)C=C1C[C@H]3O)C(=O)O` (stereo partly drawn) [7-HOCA, 7-alpha hydroxy-3-oxo-4-cholestenoic acid], the “activation of FXR receptor” value in [9] was “did not activate”. For the same compound, in [10], the “activation of RXR/NURR1 receptors” value is given as “did not activate”. In assay [11], the “activation of LXR receptor” value is listed as “did not activate”.
Take `[2H]C([2H])(CCC(C)C1CCC2C3C(O)CC4CC(NCCCNCCCCNCCCN)CCC4(C)C3CCC12C)C([2H])(C)C(=O)O` (stereo not drawn) [ENT-03D3]: the “effect on body weight, in words” value in assay [12] is listed as “gained weight”.
With `CCc1oc2cc(S(=O)(=O)Nc3ccc(S(=O)(=O)Nc4nccs4)cc3)ccc2c1C(=O)c1cc(Br)c(O)c(Br)c1` [PTP1B Inhibitor, 3-(3,5-Dibromo-4-hydroxy-benzoyl)-2-ethyl-benzofuran-6-sulfonicacid-(4-(thiazol-2-ylsulfamyl)-phenyl)-amide], the IC50 in assay [13] came to 1.82e-06 M.
